Source: PMC6631349 (Xenobiotica; the fate of foreign compounds in biological …, 2014)
Where two headings read alike, the source gives them in different places.

Tests used:
UGT1A7 = molecular target: T1, UGT1A7 (Homo sapiens, UniProt Q9HAW7); experiment: UGT1A7 supersomes-catalyzed 4-MU glucuronidation inhibition; conditions: recombinant human UGT, mean of triplicate
T1 sequence (Q9HAW7 26-530): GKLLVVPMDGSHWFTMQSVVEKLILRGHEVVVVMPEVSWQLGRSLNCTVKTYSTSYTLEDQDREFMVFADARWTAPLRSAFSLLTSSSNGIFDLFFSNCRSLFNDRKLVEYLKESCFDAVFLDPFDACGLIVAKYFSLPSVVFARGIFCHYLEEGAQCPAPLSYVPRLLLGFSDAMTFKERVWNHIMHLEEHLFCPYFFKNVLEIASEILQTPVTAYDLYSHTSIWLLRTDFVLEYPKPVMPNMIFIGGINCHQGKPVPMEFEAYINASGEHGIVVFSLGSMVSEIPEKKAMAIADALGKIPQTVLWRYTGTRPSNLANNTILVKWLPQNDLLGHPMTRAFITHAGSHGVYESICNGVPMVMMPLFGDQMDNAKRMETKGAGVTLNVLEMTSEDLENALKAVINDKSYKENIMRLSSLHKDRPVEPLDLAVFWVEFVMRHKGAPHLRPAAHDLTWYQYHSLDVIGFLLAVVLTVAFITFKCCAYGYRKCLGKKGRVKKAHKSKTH

UGT2B7 = molecular target: T2, UGT2B7 (Homo sapiens, UniProt P16662); experiment: UGT2B7 supersomes-catalyzed 4-MU glucuronidation inhibition; conditions: recombinant human UGT, mean of triplicate
T2 sequence (P16662 24-529): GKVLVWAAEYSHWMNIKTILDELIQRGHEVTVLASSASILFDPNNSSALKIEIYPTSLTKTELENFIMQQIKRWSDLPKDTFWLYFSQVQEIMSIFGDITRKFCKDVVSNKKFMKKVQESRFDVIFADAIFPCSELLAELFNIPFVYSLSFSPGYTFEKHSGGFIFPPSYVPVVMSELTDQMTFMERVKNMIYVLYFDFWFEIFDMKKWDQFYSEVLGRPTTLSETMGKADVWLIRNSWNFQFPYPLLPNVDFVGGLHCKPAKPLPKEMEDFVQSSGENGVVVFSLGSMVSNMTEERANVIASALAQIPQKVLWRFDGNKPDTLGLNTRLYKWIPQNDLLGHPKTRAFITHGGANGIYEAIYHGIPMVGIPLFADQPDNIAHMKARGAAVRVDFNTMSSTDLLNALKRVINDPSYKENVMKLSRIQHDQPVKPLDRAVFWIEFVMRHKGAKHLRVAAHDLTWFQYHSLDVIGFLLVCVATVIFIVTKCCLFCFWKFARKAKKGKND

UGT1A1 = molecular target: T3, UGT1A1 (Homo sapiens, UniProt P22309); experiment: UGT1A1 supersomes-catalyzed 4-MU glucuronidation inhibition; conditions: recombinant human UGT, mean of triplicate
T3 sequence (P22309 26-533): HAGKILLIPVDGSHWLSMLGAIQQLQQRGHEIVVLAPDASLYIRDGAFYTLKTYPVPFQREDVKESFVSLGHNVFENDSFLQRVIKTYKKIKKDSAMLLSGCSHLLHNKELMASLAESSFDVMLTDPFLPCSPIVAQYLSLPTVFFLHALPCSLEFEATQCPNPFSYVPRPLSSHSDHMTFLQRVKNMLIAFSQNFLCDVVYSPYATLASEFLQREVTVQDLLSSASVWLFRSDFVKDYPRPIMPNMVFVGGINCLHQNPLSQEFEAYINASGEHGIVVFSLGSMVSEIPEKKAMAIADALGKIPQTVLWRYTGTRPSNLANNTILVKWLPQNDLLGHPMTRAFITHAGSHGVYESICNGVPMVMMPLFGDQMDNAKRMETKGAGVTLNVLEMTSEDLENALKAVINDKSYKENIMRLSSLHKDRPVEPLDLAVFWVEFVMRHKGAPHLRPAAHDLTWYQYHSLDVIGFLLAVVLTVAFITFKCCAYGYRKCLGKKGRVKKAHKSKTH

UGT1A6 = molecular target: T4, UGT1A6 (Homo sapiens, UniProt P19224); conditions: for residual activity 1A6: recombinant human UGT, mean of triplicate; for inhibition kinetic type towards UGT1A6: Dixon and Lineweaver-Burk plots, 4-MU glucuronidation; for inhibition percentage of UGT1A6 activity: 50 μM
T4 sequence (P19224 27-532): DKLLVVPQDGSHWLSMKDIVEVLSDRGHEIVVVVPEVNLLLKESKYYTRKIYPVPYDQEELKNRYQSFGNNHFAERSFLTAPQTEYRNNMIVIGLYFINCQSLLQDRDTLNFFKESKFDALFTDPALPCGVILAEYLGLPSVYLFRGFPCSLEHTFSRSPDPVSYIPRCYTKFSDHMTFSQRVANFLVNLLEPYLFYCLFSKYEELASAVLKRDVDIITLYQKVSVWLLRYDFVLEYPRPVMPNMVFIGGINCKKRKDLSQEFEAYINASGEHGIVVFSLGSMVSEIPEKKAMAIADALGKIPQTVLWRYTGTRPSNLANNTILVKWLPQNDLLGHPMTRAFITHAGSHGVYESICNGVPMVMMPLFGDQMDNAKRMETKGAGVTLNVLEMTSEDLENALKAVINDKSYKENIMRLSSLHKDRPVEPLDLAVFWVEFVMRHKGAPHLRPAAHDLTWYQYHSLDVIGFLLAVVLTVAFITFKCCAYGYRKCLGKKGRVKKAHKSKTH

UGT2B4 = molecular target: T5, UGT2B4 (Homo sapiens, UniProt P06133); experiment: UGT2B4 supersomes-catalyzed 4-MU glucuronidation inhibition; conditions: recombinant human UGT, mean of triplicate
T5 sequence (P06133 24-528): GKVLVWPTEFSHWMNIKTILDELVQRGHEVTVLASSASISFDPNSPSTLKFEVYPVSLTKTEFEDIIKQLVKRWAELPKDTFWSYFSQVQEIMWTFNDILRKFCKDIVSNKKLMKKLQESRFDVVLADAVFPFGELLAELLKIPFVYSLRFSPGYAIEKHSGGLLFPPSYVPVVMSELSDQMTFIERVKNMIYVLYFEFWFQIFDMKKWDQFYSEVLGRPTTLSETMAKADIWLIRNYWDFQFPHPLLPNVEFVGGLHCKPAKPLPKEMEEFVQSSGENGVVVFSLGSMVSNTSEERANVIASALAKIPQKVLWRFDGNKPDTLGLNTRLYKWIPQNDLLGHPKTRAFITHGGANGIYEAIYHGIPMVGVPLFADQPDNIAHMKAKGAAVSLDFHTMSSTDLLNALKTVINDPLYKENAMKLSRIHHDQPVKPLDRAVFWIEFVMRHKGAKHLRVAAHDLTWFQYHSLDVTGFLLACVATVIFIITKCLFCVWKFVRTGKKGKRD

Row | Compound | residual activity 1A7 (UGT1A7; 50 μM LPC components) [%] | residual activity 2B7 (UGT2B7; 50 μM LPC components) [%] | residual activity 1A1 (UGT1A1; 50 μM LPC components) [%] | residual activity 1A6 (UGT1A6; 50 μM LPC components) [%] | residual activity 2B4 (UGT2B4; 50 μM LPC components) [%] | inhibition kinetic type towards UGT1A6 (UGT1A6) | residual activity 1A7 (UGT1A7; 50 μM PC components) [%] | residual activity 2B7 (UGT2B7; 50 μM PC components) [%] | residual activity 1A1 (UGT1A1; 50 μM PC components) [%] | residual activity 1A6 (UGT1A6; 50 μM PC components) [%] | residual activity 2B4 (UGT2B4; 50 μM PC components) [%] | inhibition percentage of UGT1A6 activity (UGT1A6) [%]
1 | CCCCCC(=O)OC[C@@H](O)COP(=O)([O-])OCC[N+](C)(C)C [LPC 6:0] | 130.6 | 70.0 | 176.7 | 72.7 | 183.6 | – | – | – | – | – | – | –
2 | CCCCCCC(=O)OCC(O)COP(=O)([O-])OCC[N+](C)(C)C (stereo not shown) [LPC 7:0] | 138.3 | 73.8 | 174.9 | 71.0 | 183.5 | – | – | – | – | – | – | –
3 | CCCCCCCC(=O)OCC(O)COP(=O)([O-])OCC[N+](C)(C)C (stereo not shown) [LPC 8:0] | 133.3 | 70.1 | 184.9 | 74.2 | 185.0 | – | – | – | – | – | – | –
4 | CCCCCCCCC(=O)OC[C@@H](O)COP(=O)([O-])OCC[N+](C)(C)C [LPC 9:0] | 134.9 | 76.2 | 179.6 | 67.2 | 179.1 | – | – | – | – | – | – | –
5 | CCCCCCCCCC(=O)OC[C@@H](O)COP(=O)([O-])OCC[N+](C)(C)C [LPC 10:0] | 139.8 | 77.3 | 170.2 | 65.7 | 208.4 | – | – | – | – | – | – | –
6 | CCCCCCCCCCC(=O)OC[C@@H](O)COP(=O)([O-])OCC[N+](C)(C)C [LPC 11:0] | 149.9 | 78.0 | 167.3 | 65.7 | 217.6 | – | – | – | – | – | – | –
7 | CCCCCCCCCCCC(=O)OC[C@@H](O)COP(=O)([O-])OCC[N+](C)(C)C [LPC 12:0] | 138.6 | 72.8 | 165.9 | 80.2 | 255.5 | – | – | – | – | – | – | –
8 | CCCCCCCCCCCCC(=O)OC[C@@H](O)COP(=O)([O-])OCC[N+](C)(C)C [LPC 13:0] | 120.1 | 79.9 | 160.6 | 83.8 | 239.4 | – | – | – | – | – | – | –
9 | CCCCCCCCCCCCCC(=O)OC[C@@H](O)COP(=O)([O-])OCC[N+](C)(C)C [LPC 14:0] | 153.6 | 90.5 | 171.3 | 33.3 | 217.1 | – | – | – | – | – | – | –
10 | CCCCCCCCCCCCCCC(=O)OC[C@@H](O)COP(=O)([O-])OCC[N+](C)(C)C [LPC 15:0] | 156.2 | 43.9 | 162.9 | 2.9 | 152.6 | competitive inhibition | – | – | – | – | – | –
11 | CCCCCCCCCCCCCCCCC(=O)OC[C@@H](O)COP(=O)([O-])OCC[N+](C)(C)C [LPC 17:0] | 164.3 | 81.5 | 167.6 | 8.5 | 333.4 | – | – | – | – | – | – | –
12 | CCCCCCCCCCCCCCCCCC(=O)OC[C@@H](O)COP(=O)([O-])OCC[N+](C)(C)C [LPC 18:0] | 133.4 | 39.3 | 160.5 | 4.3 | 280.4 | non-competitively inhibited | – | – | – | – | – | –
13 | CCCCCC(=O)OC[C@H](COP(=O)([O-])OCC[N+](C)(C)C)OC(=O)CCCCC [PC 6:0, 6:0] | – | – | – | – | – | – | 166.0 | 70.2 | 187.8 | 67.3 | 178.7 | –
14 | CCCCCCC(=O)OC[C@H](COP(=O)([O-])OCC[N+](C)(C)C)OC(=O)CCCCCC [PC 7:0, 7:0] | – | – | – | – | – | – | 150.2 | 64.5 | 176.8 | 50.7 | 186.9 | –
15 | CCCCCCCC(=O)OC[C@H](COP(=O)([O-])OCC[N+](C)(C)C)OC(=O)CCCCCCC [PC 8:0, 8:0] | – | – | – | – | – | – | 114.8 | 71 | 155.6 | 25.6 | 173.1 | 74.4
16 | CCCCCCCCC(=O)OC[C@H](COP(=O)([O-])OCC[N+](C)(C)C)OC(=O)CCCCCCCC [PC 9:0, 9:0] | – | – | – | – | – | – | 137 | 79.6 | 162.3 | 21.4 | 156.7 | 78.6
17 | CCCCCCCCCC(=O)OC[C@H](COP(=O)([O-])OCC[N+](C)(C)C)OC(=O)CCCCCCCCC [PC 10:0, 10:0] | – | – | – | – | – | – | 163.2 | 86.2 | 197.9 | 23.2 | 168.4 | 76.8
18 | CCCCCCCCCCC(=O)OC[C@H](COP(=O)([O-])OCC[N+](C)(C)C)OC(=O)CCCCCCCCCC [PC 11:0, 11:0] | – | – | – | – | – | – | 175.5 | 100.5 | 232.3 | 35.0 | 181.0 | –
19 | CCCCCCCCCCCC(=O)OC[C@H](COP(=O)([O-])OCC[N+](C)(C)C)OC(=O)CCCCCCCCCCC [PC 12:0, 12:0] | – | – | – | – | – | – | 171.4 | 85.8 | 208.8 | 40.8 | 182.7 | –
